The target in assay [1] is T1, FLAG-tagged Vanin-1 (AA 22-493, T26I) (Homo sapiens, UniProt O95497, T26I).
T1 construct: FLAG-tagged Vanin-1 (AA 22-493, T26I, produced internally); FLAG; made in house
T1 sequence (O95497 22-493 T26I): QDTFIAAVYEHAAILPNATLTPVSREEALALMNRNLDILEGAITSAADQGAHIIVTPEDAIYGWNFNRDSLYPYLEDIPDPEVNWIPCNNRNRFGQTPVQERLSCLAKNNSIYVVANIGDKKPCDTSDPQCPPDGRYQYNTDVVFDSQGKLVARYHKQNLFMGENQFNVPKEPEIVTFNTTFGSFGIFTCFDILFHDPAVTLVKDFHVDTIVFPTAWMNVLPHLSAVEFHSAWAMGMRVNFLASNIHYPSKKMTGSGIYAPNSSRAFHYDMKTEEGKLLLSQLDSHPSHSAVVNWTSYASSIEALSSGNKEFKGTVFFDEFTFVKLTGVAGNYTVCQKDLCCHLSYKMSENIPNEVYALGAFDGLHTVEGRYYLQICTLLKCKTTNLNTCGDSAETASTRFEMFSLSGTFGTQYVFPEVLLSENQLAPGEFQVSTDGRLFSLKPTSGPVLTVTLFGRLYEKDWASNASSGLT
As to the kind of experiment: Vanin-1 enzymatic assay (pantothenic acid formation, RapidFire mass spectrometry). The format is biochemical. The conditions noted are these: 0.1 nM FLAG-tagged Vanin-1, 3 μM D-pantethine, room temperature; geometric mean in case of multiple measurements; read-out: VNN-1 IC50. On the procedure:
Description of Biological Properties Vanin-1 Enzymatic Assay:
The test compounds are dissolved in 100% DMSO at a concentration of 10 mM and in a first step diluted in DMSO to a concentration of 5 mM, followed by serial dilution steps in 100% DMSO. Dilution factor and number of dilution steps may vary according to needs. Typically 8 different concentrations by 1:5 dilutions are prepared, a further intermediate dilutions of the substances is carried out with assay buffer resulting in 1% final DMSO concentration in the assay.
0.1 nM of FLAG-tagged Vanin-1 (AA 22-493, T26I, produced internally) and test compounds are incubated at room temperature for 20 minutes in assay buffer (1 mM DTT, 0.0025% Brij-35, 50 mM HEPES, pH7.5). D-Pantethine (Sigma, Cat #P2125-5G) in assay buffer is added (final concentration 3 μM) and incubated for additional 30 minutes at room temperature. Total assay volume typically is 40 μl but might be adjusted according to needs. Reaction is stopped by adding equal volume of stop solution as the reaction mixture to reach 100 nM HD-pantothenic acid (as an internal standard) and 1% TFA. Assay plates are centrifuged for 2 minutes and the formation of pantothenic acid is detected by RapidFire Mass Spectrometry (mobile phase A: 0.1% formic acid and 0.01% trifluoroacetic acid in water; mobile phase B: 47.5% acetonitrile, 47.5% methanol, 0.1% formic acid and 0.01% trifluoroacetic acid in water) using a C18, 12 μL cartridge (Agilent Cat #G9205A).
The values given in Table I result from measurements of one or more samples. In case of multiple measurements the geometric mean values are given.

The next assay has as its system Pantetheinase (vanin). As to the kind of experiment: Human Whole Blood assay (vanin activity by pantothenic acid formation). The class given is cell-based. The conditions noted are these: pantethine substrate, 5 min reaction at room temperature, geometric mean in case of multiple measurements, read-out: HWB IC50. On the procedure: Human Whole Blood assay: Pantetheinase (vanin) converts panteheine into pantothenic acid and cysteamine. Accordingly, in the described protocol vanin activity is quantified by formation of pantothenic acid after pantetheine supplementation via pantethine. The assay is applicable to identify vanin inhibitors. Compound stocks are dissolved in DMSO at 10 mM. Further dilutions are performed in RPMI 1640 medium (Gibco, #A-10491-01) and final concentrations in the assay are 0.032 nM-500 nM.
Human blood is drawn into a blood bag (1% heparin, 50 I.E./mL). Blood is aliquoted into cavities of 96-deep-well plates at 290 μL and mixed with 10 μL compound solution or vehicle (30 sec at 1400 rpm on a shaker). Equilibration follows at room temperature, 250 rpm and for 30 min. The assay is started by adding 10 μL of substrate solution (2 μM pantethine in 1 mM DTT, 0.0025% Brij-35, 50 mM HEPES, pH7.5) to each well, except for some blank wells which receive […] substrate buffer (1 mM DTT, 0.0025% Brij-35, 50 mM HEPES, pH7.5) only. Samples are thoroughly shaken (30 sec, 1400 rpm) and reaction is allowed to take place at room temperature, 250 rpm and for 5 min. The reaction is stopped by addition of a vanin tool inhibitor in excess (BI-1 total conc. 10 μM). Centrifugation of the plate follows at 4° C., 665 G for 10 min. Then the blood plasma samples (100 μL) are transferred into another 96-deep-well plate and proteins are precipitated (5 min on ice) by adding 100 μL of ice cold precipitation solution (1 μM labelled pantothenic acid (di-β-alanine-13C6,15N2 calcium salt, Sigma, #705837) in acetonitrile).
Afterwards the plate is centrifuged (4° C., 3220 G, 10 min) and supernatants (50 μL) are collected into another 96-deep-well plate and mixed (10 sec, 1400 rpm) with 150 μL ice cold formic acid (0.1%, Carl Roth GmbH+Co.KG, #CP03.1). The formation of pantothenic acid is detected by RapidFire Mass Spectrometry. A TripleQuad 6500+(ABSciex, Germany) is equipped with an LC-1290 system, a RapidFire autosampler (Agilent, Germany) and a C18 cartridge Type C 12 μL (Agilent Cat #G9526-80000). Mobile phase A is consisting of 0.09% formic acid and 0.01% trifluoroacetic acid in water and mobile phase B of 0.09% formic acid and 0.01% trifluoroacetic acid in acetonitrile/methanol/water=47.5/47.5/5.

On to `CC(=O)N(C)[C@H]1CCN(C(=O)c2ccc(N[C@H](C)c3ccc4c(cnn4C)c3)nc2)C1` [Example 5.32], for which the IC50 (usually the concentration that inhibits the measured activity by half) in assay [1] is 9.06 nM.
Same read-out and setting: as for `CN(C(=O)C1CCC1)[C@H]1CCN(C(=O)c2ccc(NCc3csc4ccccc34)nc2)C1` [Example 9.1, N-[(3S)-1-(6-{[(1-Benzothiophen-3-yl)methyl]amino}pyridine-3-carbonyl)pyrrolidin-3-yl]-N-methylcyclobutanecarboxamide], the figure is 0.26 nM.
In the case of `CC(=O)N(C)[C@H]1CCN(C(=O)c2ccc(NCc3c(Cl)nc4sccn34)nc2)C1` [Example 5.4], the IC50 in assay [1] amounted to 0.12 nM; with Pantetheinase (vanin), 1.59 nM.
`CC(=O)N(C)[C@H]1CCN(C(=O)c2ccc(NCc3cnc4ccsc4c3)nc2)C1` [Example 2.4]: the IC50 was found to be 0.29 nM in assay [1] and 1.39 nM in the assay on Pantetheinase (vanin).
On the same counts, the results for `CC(=O)N(C)[C@H]1CCN(C(=O)c2ccc(NCc3ccc4[nH]ncc4c3)nc2)C1` [Example 5.22] are 0.82 nM and 3.35 nM.
On to `CC1(C#N)CCN(C(=O)c2ccc(NCc3csc4ccccc34)nc2)C1` (centres unmarked) [Example 9.2], for which the IC50 in assay [1] turned out to be 1.14 nM.
Regarding `CC(=O)N(C)[C@H]1CCN(C(=O)c2ccc(N[C@H](C)c3cccc4c3cnn4C)nc2)C1` [Example 5.25], in assay [1], the IC50 amounted to 1.43 nM.
In the case of `CN(C(=O)C1CC1)[C@H]1CCN(C(=O)c2ccc(NCc3cnc4ccccn34)nc2)C1` [Example 1.16], the IC50 in assay [1] came to 0.2 nM; in the assay on Pantetheinase (vanin) it was 2.78 nM.
On to `CC(=O)N(C)[C@H]1CCN(C(=O)c2ccc(NCc3cc4ccccc4[nH]3)nc2)C1` [Example 5.33], for which, in assay [1], the IC50 came out at 9.33 nM.
On to `CN(C(=O)C1(C#N)CC1)[C@H]1CCN(C(=O)c2ccc(NCc3cnc4ccccn34)nc2)C1` [Example 1.13], for which the values for the IC50 (in assay [1]; in the assay on Pantetheinase (vanin)) were 0.15 nM and 3.03 nM, respectively.
`CC(=O)N(C)[C@H]1CCN(C(=O)c2ccc(N[C@@H](C)c3nc4cc(Cl)ccc4[nH]3)nc2)C1` [Example 5.15]: the IC50 was 0.6 nM in assay [1] and 7.52 nM in the assay on Pantetheinase (vanin).
With `CC1(C#N)CCN(C(=O)c2ccc(NCc3ccnc4[nH]ccc34)nc2)C1` (centres unmarked) [Example 1.19], the IC50 turned out to be 0.3 nM in assay [1] and 3.78 nM in the assay on Pantetheinase (vanin).
Regarding `CC(=O)N(C)[C@H]1CCN(C(=O)c2ccc(NCc3c[nH]c4ccccc34)nc2)C1` [Example 5.16], the IC50 in assay [1] worked out at 0.62 nM; with Pantetheinase (vanin), 4.39 nM.
For the molecule `CC(=O)N(C)[C@H]1CCN(C(=O)c2ccc(NCc3cc(Br)cc4[nH]ncc34)nc2)C1` [Example 5.5], in assay [1], the 50% inhibitory concentration (IC50) amounted to 0.13 nM.
For `O=C(c1ccc(NCc2csc3ccccc23)nc1)N1CC[C@H](N2CCCC2=O)C1` [Example 8.2], the IC50 in assay [1] was determined as 0.21 nM.
As to `C[C@H](Nc1ccc(C(=O)N2CC[C@H](N(C)C(=O)C3CC(F)(F)C3)C2)cn1)c1cnc2[nH]ccc2c1` [Example 1.10], the IC50 is 0.16 nM in assay [1] and 2.78 nM with Pantetheinase (vanin).
In the case of `CC(=O)N(C)[C@H]1CCN(C(=O)c2ccc(NCc3cnn4cccnc34)nc2)C1` [Example 5.29], in assay [1], the IC50 is 2.74 nM.
In the case of `CC(=O)N(C)[C@H]1CCN(C(=O)c2ccc(NCc3cnc4ccccc4c3)nc2)C1` [Example 5.11], the IC50 in assay [1] was 0.21 nM.
In the case of `CC(=O)N(C)[C@H]1CCN(C(=O)c2ccc(NCc3ccnc4[nH]ccc34)nc2)C1` [Example 5.13], the IC50 in assay [1] is 0.28 nM; in the assay on Pantetheinase (vanin) it was 1.71 nM.
Turning to `CC(=O)N(C)[C@H]1CCN(C(=O)c2ccc(N[C@@H](C)c3ccc4c(cnn4C)c3)nc2)C1` [Example 5.37], the IC50 in assay [1] was 0.24 nM.
Still for that read-out and setting: as for `CC(=O)N(C)[C@H]1CCN(C(=O)c2ccc(NCc3ccc4[nH]ccc4c3)nc2)C1` [Example 5.17], the figure is 0.64 nM; as for `CC(=O)N(C)[C@H]1CCN(C(=O)c2ccc(NCc3nc4ccccc4s3)nc2)C1` [Example 5.31], 4.62 nM.
For the molecule `CC(=O)N(C)[C@H]1CCN(C(=O)c2ccc(NCc3cccc4cccnc34)nc2)C1` [Example 5.30], the IC50 in assay [1] came out at 3.02 nM.
`CC(=O)N(C)[C@H]1CCN(C(=O)c2ccc(NCc3csc4ccc(Cl)cc34)nc2)C1` [Example 2.3]: the IC50 in assay [1] worked out at 0.21 nM.
`CC(=O)N(C)[C@H]1CCN(C(=O)c2ccc(NCc3cc(C)cc4[nH]ncc34)nc2)C1` [Example 6.1, N-Methyl-N-[(3S)-1-(6-{[(6-methyl-1H-indazol-4-yl)methyl]amino}pyridine-3-carbonyl)pyrrolidin-3-yl]acetamide]: the IC50 in assay [1] was determined as 0.14 nM.
On the same count and under the same terms, as for `CC(=O)N(C)[C@H]1CCN(C(=O)c2ccc(NCc3cccc4c3ccn4C)nc2)C1` [Example 2.5], the figure is 0.67 nM; as for `C[C@H](Nc1ccc(C(=O)N2CC[C@H](N(C)C(=O)C3(C)CCC3)C2)cn1)c1cnc2[nH]ccc2c1` [Example 1.11], 0.2 nM; as for `CC(=O)N(C)[C@H]1CCN(C(=O)c2ccc(NCc3ccc4nc(N)[nH]c4c3)nc2)C1` [Example 5.18], 0.69 nM.
As for `C[C@H](Nc1ccc(C(=O)N2CC[C@H](N(C)C(=O)C3(C)CCC3)C2)cn1)c1cnc2[nH]ccc2c1` [Example 1.8], the IC50 in assay [1] amounted to 0.14 nM.
In the case of `CC(=O)N(C)[C@H]1CCN(C(=O)c2ccc(NCc3n[nH]c4c3CCCC4)nc2)C1` [Example 5.28], the IC50 in assay [1] came to 2.65 nM.
As for `O=C(c1ccc(NCc2csc3ccccc23)nc1)N1CC[C@H](N2CCOC2=O)C1` [Example 8.1, 3-[(3S)-1-(6-{[(1-Benzothiophen-3-yl)methyl]amino}pyridine-3-carbonyl)pyrrolidin-3-yl]-13-oxazolidin-2-one], in assay [1], the IC50 was 0.2 nM.
For the molecule `CC(=O)N(C)[C@H]1CCN(C(=O)c2ccc(N[C@@H](C)c3nc4cc(Cl)c(F)cc4[nH]3)nc2)C1` [Example 5.20], the IC50 in assay [1] was determined as 0.76 nM.
Regarding `CC(=O)N(C)[C@H]1CCN(C(=O)c2ccc(N[C@H](C)c3cccc4nn(C)cc34)nc2)C1` [Example 5.27], the IC50 in assay [1] was determined as 2.25 nM.
On to `CC(=O)N(C)[C@H]1CCN(C(=O)c2ccc(NCc3cc4ccccc4s3)nc2)C1` [Example 2.6], for which, in assay [1], the IC50 came to 2.05 nM.
As to `CC(=O)N(C)[C@H]1CCN(C(=O)c2ccc(N[C@@H](C)c3cccc4ccccc34)nc2)C1` [Example 2.2], in assay [1], the IC50 came out at 0.14 nM.
Consider `CC(=O)N(C)[C@H]1CCN(C(=O)c2ccc(NCc3ccc4onc(N)c4c3)nc2)C1` [Example 5.34], for which the IC50 in assay [1] was 9.43 nM.
On to `CC(=O)N(C)[C@H]1CCN(C(=O)c2ccc(NCc3ccc4ncccc4c3)nc2)C1` [Example 5.26], for which, in assay [1], the IC50 was 1.62 nM.

Values taken from patent publication US12358910B2, “Heteroaromatic compounds as Vanin inhibitors” (Boehringer Ingelheim International GmbH, priority 2018, dated 2025).
